Results reported in ChEMBL document CHEMBL4811244, “Design and synthesis of 1H-pyrazolo[3,4-b]pyridines targeting mitogen-activated protein kinase kinase 4 (MKK4) - A promising target for liver regeneration” (Eur J Med Chem, 2021).

What was measured:
[1] = biological target: Mitogen-activated protein kinase kinase kinase kinase 5 (Homo sapiens, UniProt Q9Y4K4); assay: Binding affinity to wild-type human partial length MAP4K5 (M1 to P297 residues) expressed in bacterial expression system assessed as residual binding level at 100 nM by Kinomescan method relative to control
Chain of Mitogen-activated protein kinase kinase kinase kinase 5 (Q9Y4K4 whole entry, looked up, the tested form may be a part): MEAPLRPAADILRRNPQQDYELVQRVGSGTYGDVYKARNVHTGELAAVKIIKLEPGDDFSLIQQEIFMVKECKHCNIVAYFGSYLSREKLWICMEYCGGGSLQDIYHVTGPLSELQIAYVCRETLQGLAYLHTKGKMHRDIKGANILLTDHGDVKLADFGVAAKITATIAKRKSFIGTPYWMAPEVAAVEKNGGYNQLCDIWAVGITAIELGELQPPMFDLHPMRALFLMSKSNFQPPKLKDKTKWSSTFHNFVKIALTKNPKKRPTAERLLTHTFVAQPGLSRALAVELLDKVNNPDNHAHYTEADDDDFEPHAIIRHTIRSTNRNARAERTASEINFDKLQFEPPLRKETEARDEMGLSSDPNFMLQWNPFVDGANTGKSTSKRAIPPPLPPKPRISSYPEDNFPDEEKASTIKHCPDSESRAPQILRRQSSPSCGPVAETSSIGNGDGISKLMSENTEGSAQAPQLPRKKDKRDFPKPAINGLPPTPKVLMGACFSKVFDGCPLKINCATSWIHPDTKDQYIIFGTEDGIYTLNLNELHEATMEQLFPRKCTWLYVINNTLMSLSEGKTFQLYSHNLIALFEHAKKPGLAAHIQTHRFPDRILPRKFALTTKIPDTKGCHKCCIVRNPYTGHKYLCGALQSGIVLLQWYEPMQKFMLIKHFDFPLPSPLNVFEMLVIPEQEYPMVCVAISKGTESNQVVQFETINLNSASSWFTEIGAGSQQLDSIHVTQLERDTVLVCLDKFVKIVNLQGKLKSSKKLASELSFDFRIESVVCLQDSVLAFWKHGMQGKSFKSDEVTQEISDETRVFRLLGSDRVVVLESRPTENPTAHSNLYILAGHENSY

[2] = biological target: T1, Dual specificity mitogen-activated protein kinase kinase 7 (Homo sapiens) (UniProt O14733); assay: Binding affinity to wild-type human full length MKK7 (M1 to R419 residues) expressed in mammalian expression system assessed as residual binding level at 100 nM by Kinomescan method relative to control
T1 sequence (whole entry): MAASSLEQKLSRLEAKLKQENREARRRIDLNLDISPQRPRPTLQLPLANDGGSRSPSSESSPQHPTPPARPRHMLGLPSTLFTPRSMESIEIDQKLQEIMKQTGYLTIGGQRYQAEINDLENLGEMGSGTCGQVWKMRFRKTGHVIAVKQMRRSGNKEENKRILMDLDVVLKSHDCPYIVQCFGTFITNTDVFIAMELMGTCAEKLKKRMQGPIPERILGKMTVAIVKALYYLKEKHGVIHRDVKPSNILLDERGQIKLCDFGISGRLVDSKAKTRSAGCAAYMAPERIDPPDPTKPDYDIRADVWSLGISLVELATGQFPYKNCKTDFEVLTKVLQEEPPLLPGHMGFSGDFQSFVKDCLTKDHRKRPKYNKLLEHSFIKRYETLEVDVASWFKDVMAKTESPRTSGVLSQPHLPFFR

[3] = biological target: Mitogen-activated protein kinase kinase kinase 20 (Homo sapiens, UniProt Q9NYL2); assay: Binding affinity to wild-type human partial length ZAK (M1 to L331 residues) expressed in bacterial expression system assessed as residual binding level at 100 nM by Kinomescan method relative to control
Chain of Mitogen-activated protein kinase kinase kinase 20 (Q9NYL2 2-800 limits assumed): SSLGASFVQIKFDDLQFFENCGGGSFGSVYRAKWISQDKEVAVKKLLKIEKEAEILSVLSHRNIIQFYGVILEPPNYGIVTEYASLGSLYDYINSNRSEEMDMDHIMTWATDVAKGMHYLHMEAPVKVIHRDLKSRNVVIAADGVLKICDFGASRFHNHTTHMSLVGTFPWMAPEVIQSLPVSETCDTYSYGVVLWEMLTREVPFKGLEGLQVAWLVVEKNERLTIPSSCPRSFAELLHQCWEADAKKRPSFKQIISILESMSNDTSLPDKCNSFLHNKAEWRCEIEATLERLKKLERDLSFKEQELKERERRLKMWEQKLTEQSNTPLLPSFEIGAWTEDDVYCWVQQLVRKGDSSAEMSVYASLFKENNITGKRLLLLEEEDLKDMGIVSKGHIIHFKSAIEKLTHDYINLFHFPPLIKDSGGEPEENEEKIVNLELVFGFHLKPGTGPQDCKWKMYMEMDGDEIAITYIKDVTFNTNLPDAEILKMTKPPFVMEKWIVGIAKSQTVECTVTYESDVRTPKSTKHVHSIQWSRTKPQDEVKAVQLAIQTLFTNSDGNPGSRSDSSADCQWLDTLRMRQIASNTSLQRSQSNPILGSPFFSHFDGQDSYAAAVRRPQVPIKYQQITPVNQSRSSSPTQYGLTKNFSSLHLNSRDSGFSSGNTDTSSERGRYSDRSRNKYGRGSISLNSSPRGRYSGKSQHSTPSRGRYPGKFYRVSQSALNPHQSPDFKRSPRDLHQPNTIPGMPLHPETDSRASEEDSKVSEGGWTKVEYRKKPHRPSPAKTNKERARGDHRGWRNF

[4] = biological target: T2, Dual specificity mitogen-activated protein kinase kinase 4 (Homo sapiens, UniProt P45985); assay: Inhibition of MKK4 (unknown origin) by PanQinase assay
T2 sequence (P45985 whole entry): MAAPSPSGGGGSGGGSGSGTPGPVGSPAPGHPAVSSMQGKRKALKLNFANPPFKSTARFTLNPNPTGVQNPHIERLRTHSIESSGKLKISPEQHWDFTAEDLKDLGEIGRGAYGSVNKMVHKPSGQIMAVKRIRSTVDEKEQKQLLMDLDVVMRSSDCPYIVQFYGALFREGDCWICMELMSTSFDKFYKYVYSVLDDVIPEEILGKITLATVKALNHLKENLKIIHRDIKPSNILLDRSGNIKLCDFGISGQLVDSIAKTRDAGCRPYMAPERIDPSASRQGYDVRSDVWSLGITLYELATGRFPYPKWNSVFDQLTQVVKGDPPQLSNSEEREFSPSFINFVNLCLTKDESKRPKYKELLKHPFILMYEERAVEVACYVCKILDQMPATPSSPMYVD

| Structure (SMILES) | Activity [1] | Activity [2] | Activity [3] | IC50 [4] |
| --- | --- | --- | --- | --- |
| CCCS(=O)(=O)Nc1ccc(F)c(C(=O)c2n[nH]c3ncc(-c4ccc([N+](=O)[O-])cc4)cc23)c1F | 61% | 100% | 23% | – |
| CCCS(=O)(=O)Nc1ccc(F)c(C(=O)c2n[nH]c3ncc(-c4cccc(C(F)(F)F)c4)cc23)c1F | 98% | 100% | 44% | – |
| CCCS(=O)(=O)Nc1ccc(F)c(C(=O)c2n[nH]c3ncc(-c4ccc(Cl)cc4Cl)cc23)c1F | 100% | 96% | 99% | – |
| CCCS(=O)(=O)Nc1ccc(F)c(C(=O)c2n[nH]c3ncc(-c4ccccc4C)cc23)c1F | 67% | 100% | 41% | – |
| CCCS(=O)(=O)Nc1ccc(F)c(C(=O)c2n[nH]c3ncc(-c4ccc(N)cc4)cc23)c1F | 1.3% | 93% | 2.7% | – |
| CCCS(=O)(=O)Nc1ccc(F)c(C(=O)c2n[nH]c3ncc(-c4ccc(S(N)(=O)=O)cc4C)cc23)c1F | – | 100% | 94% | – |
| CCCS(=O)(=O)Nc1ccc(F)c(C(=O)c2n[nH]c3ncc(-c4ccc(S(N)(=O)=O)cc4Cl)cc23)c1F | – | 100% | 100% | – |
| CCCS(=O)(=O)Nc1ccc(F)c(C(=O)c2n[nH]c3ncc(-c4ccccc4N)cc23)c1F | 73% | 95% | 40% | – |
| CCCS(=O)(=O)Nc1ccc(F)c(C(=O)c2n[nH]c3ncc(-c4ccc(S(C)(=O)=O)cc4)cc23)c1F | 14% | 100% | 21% | – |
| CCCS(=O)(=O)Nc1ccc(F)c(C(=O)c2n[nH]c3ncc(-c4cccc(OC)c4)cc23)c1F | 24% | 100% | 23% | – |
| CCCS(=O)(=O)Nc1ccc(F)c(C(=O)c2n[nH]c3ncc(-c4ccccc4)cc23)c1F | 24% | 100% | 1.9% | – |
| CCCS(=O)(=O)Nc1ccc(F)c(C(=O)c2n[nH]c3ncc(-c4ccc(N(C)C)cc4)cc23)c1F | 31% | 100% | 2.2% | – |
| CCCS(=O)(=O)Nc1ccc(F)c(C(=O)c2n[nH]c3ncc(-c4ccccc4O)cc23)c1F | 39% | 100% | 9.7% | – |
| CCCS(=O)(=O)Nc1ccc(F)c(C(=O)c2n[nH]c3ncc(-c4ccc(C)cc4)cc23)c1F | 25% | 100% | 5.9% | – |
| CCCS(=O)(=O)Nc1ccc(F)c(C(=O)c2n[nH]c3ncc(-c4ccc(Cl)c(C(F)(F)F)c4)cc23)c1F | 16% | 100% | 20% | – |
| CCCS(=O)(=O)Nc1ccc(F)c(C(=O)c2n[nH]c3ncc(-c4cccc(C)c4)cc23)c1F | 18% | 100% | 5.5% | – |
| CCCCS(=O)(=O)Nc1ccc(F)c(C(=O)c2n[nH]c3ncc(-c4ccc(S(N)(=O)=O)cc4)cc23)c1F | 100% | 100% | 100% | – |
| CCCS(=O)(=O)Nc1ccc(F)c(C(=O)c2n[nH]c3ncc(-c4ccc(S(=O)(=O)NC(C)=O)cc4)cc23)c1F | 67% | 71% | 38% | 29 nM |
| CCCS(=O)(=O)Nc1ccc(F)c(C(=O)c2n[nH]c3ncc(-c4ccccc4Cl)cc23)c1F | 96% | 100% | 64% | – |
| CCCS(=O)(=O)Nc1ccc(F)c(C(=O)c2n[nH]c3ncc(-c4cccc(F)c4)cc23)c1F | 65% | 97% | 12% | – |
| CCCS(=O)(=O)Nc1ccc(F)c(C(=O)c2n[nH]c3ncc(-c4cccc(Cl)c4)cc23)c1F | 69% | 100% | 16% | – |
| CCCS(=O)(=O)Nc1ccc(F)c(C(=O)c2n[nH]c3ncc(-c4ccc(C(N)=O)cc4)cc23)c1F | 10% | 99% | 8.1% | – |
| CCCS(=O)(=O)Nc1ccc(F)c(C(=O)c2n[nH]c3ncc(-c4cccc(N(C)C)c4)cc23)c1F | 11% | 100% | 9.7% | – |
| CCCS(=O)(=O)Nc1ccc(F)c(C(=O)c2n[nH]c3ncc(-c4ccc(S(N)(=O)=O)cc4F)cc23)c1F | 77% | 100% | 100% | – |

| Structure (SMILES) | Activity [1] | Activity [2] | Activity [3] | IC50 [4] |
| --- | --- | --- | --- | --- |
| CCCS(=O)(=O)Nc1ccc(F)c(C(=O)c2n[nH]c3ncc(-c4cccc(N)c4)cc23)c1F | 3.8% | 86% | 2.3% | – |
| CCCS(=O)(=O)Nc1ccc(F)c(C(=O)c2n[nH]c3ncc(-c4ccccc4F)cc23)c1F | 59% | 83% | 32% | – |
| CCCS(=O)(=O)Nc1ccc(F)c(C(=O)c2n[nH]c3ncc(-c4ccc(C(F)(F)F)cc4)cc23)c1F | 76% | 100% | 75% | – |
| CCCS(=O)(=O)Nc1ccc(F)c(C(=O)c2n[nH]c3ncc(-c4ccc(Cl)c(Cl)c4)cc23)c1F | 100% | 100% | 85% | – |
| CCCS(=O)(=O)Nc1ccc(F)c(C(=O)c2n[nH]c3ncc(-c4cccc([N+](=O)[O-])c4)cc23)c1F | 93% | 95% | 52% | – |
| CCCS(=O)(=O)Nc1ccc(F)c(C(=O)c2n[nH]c3ncc(-c4ccc(C)c(C)c4)cc23)c1F | 20% | 100% | 24% | – |
| CCCS(=O)(=O)Nc1ccc(F)c(C(=O)c2n[nH]c3ncc(-c4ccc(OC)cc4Cl)cc23)c1F | 53% | 100% | 74% | – |
| CS(=O)(=O)Nc1ccc(F)c(C(=O)c2n[nH]c3ncc(-c4ccc(S(N)(=O)=O)cc4)cc23)c1F | 99% | 99% | 100% | – |
| CCCS(=O)(=O)Nc1ccc(F)c(C(=O)c2n[nH]c3ncc(-c4ccc(C(C)C)cc4)cc23)c1F | 89% | 98% | 92% | – |
| CCCS(=O)(=O)Nc1ccc(F)c(C(=O)c2n[nH]c3ncc(-c4ccc(C(C)(C)C)cc4)cc23)c1F | 97% | 100% | 77% | – |
| CCCS(=O)(=O)Nc1ccc(F)c(C(=O)c2n[nH]c3ncc(-c4ccccc4OC)cc23)c1F | 34% | 100% | 36% | – |
| CCCS(=O)(=O)Nc1ccc(F)c(C(=O)c2n[nH]c3ncc(-c4ccc(F)cc4C)cc23)c1F | 55% | 100% | 65% | – |
| CCCS(=O)(=O)Nc1ccc(F)c(C(=O)c2n[nH]c3ncc(-c4ccc(O)cc4)cc23)c1F | 9.4% | 87% | 0% | – |
| CCCS(=O)(=O)Nc1ccc(F)c(C(=O)c2n[nH]c3ncc(-c4ccc(S(=O)(=O)NCC)cc4)cc23)c1F | 26% | 100% | 32% | – |
| CCCS(=O)(=O)Nc1ccc(F)c(C(=O)c2n[nH]c3ncc(-c4ccc(F)cc4)cc23)c1F | 59% | 100% | 4.8% | – |
| CCCS(=O)(=O)Nc1ccc(F)c(C(=O)c2n[nH]c3ncc(-c4cccc(O)c4)cc23)c1F | 8% | 100% | 0.95% | – |
| CCCS(=O)(=O)Nc1ccc(F)c(C(=O)c2n[nH]c3ncc(-c4ccc(OC)cc4)cc23)c1F | 28% | 100% | 1.9% | – |
| CCCS(=O)(=O)Nc1ccc(F)c(C(=O)c2n[nH]c3ncc(-c4ccc(C(=O)O)cc4)cc23)c1F | 75% | 27% | 7.5% | – |
| CCCS(=O)(=O)Nc1ccc(F)c(C(=O)c2n[nH]c3ncc(-c4ccc(NS(C)(=O)=O)cc4)cc23)c1F | 1.1% | 100% | 4.3% | – |
| CCCS(=O)(=O)Nc1ccc(F)c(C(=O)c2n[nH]c3ncc(-c4ccc(-c5nnn[nH]5)cc4)cc23)c1F | 81% | 64% | 20% | – |
| CCCS(=O)(=O)Nc1ccc(F)c(C(=O)c2n[nH]c3ncc(-c4cc(Cl)cc(Cl)c4)cc23)c1F | 99% | 100% | 66% | – |
| CCCS(=O)(=O)Nc1ccc(F)c(C(=O)c2n[nH]c3ncc(-c4ccc(S(=O)(=O)NC)cc4)cc23)c1F | 17% | 100% | 33% | – |
| CCCS(=O)(=O)Nc1ccc(F)c(C(=O)c2n[nH]c3ncc(-c4ccc(S(N)(=O)=O)cc4)cc23)c1F | 100% | 98% | 91% | 89 nM |
